According to patent US20250114325A1 (JIANGSU PROVINCE HOSPITAL OF CHINESE MEDICINE, priority 2022, published 2025):

Key:
Assay type in all cases: cell-based, human
[1] = system: SiHa cells; assay: Annexin V-AF647/PI flow cytometry apoptosis assay; details: added to Atr-I (BzATP 100 μM or JNJ 20 μM); 48 h
Description: (§2) The cell lines selected were human cervical cancer Hela (HPV18+) and Siha (HPV16+) cell lines.
(§3) The proportion of apoptotic cells was measured using the Annexin V-AF647/PI Apoptosis Kit (E-CK-A213; Elabscience Biotechnology, Wuhan, China). The cells in logarithmic growth phase were used and seeded in a culture bottle at a suspension density of 1×10^6 cells/mL, and then cultured in a CO2 incubator for 24 h. […] Subsequently, the cells were re-suspended in 500 μL of the binding buffer. After adding 5 μL of Annexin V-AF647 and 5 μL of PI to the cell suspension, respectively, the cell cycle was assayed using FACSCalibur flow cytometry (BD Biosciences, San Jose, CA, USA). The data were analyzed with FlowJo software (FlowJo, Ashland, OR, USA).

[2] = system: Hela cells; assay: Annexin V-AF647/PI flow cytometry apoptosis assay; details: added to Atr-I (BzATP 100 μM or JNJ 20 μM); 48 h
Description: as §2, §3

[3] = system: SiHa cells; assay: Cell proliferation experiment (CCK-8 cell viability); details: single agent, 24 h, 48 h, 72 h, dose and time-dependent
Description: (§1) Assay of cell viability by CCK-8 kit: Cells (cell density: 1000 cells/well) were inoculated in a 96-well plate and cultured for 24 hours. […] Cell proliferation was detected using Cell Counting Kit-8 (CCK-8).

[4] = system: Hela cells; assay: as above; details: single agent, 24 h, 48 h, 72 h, dose and time-dependent
Description: as §1

Nc1ncnc2c1ncn2[C@@H]1O[C@H](COP(=O)(O)OP(=O)(O)OP(=O)(O)O)[C@@H](OC(=O)c2ccc(C(=O)c3ccccc3)cc2)[C@H]1O [BzATP]
effect on Atr-I-induced apoptosis in SiHa cells [1]: had no effect on Atr-I-induced apoptosis in SiHa cells | effect on Atr-I-induced apoptosis in Hela cells [2]: inhibited Atr-I-induced apoptosis in Hela cells | inhibition of growth of SiHa cells [3]: significantly inhibited the growth | inhibition of growth of Hela cells [4]: significantly inhibited the growth
